# Measured values published in PubChem BioAssay (NCI).
#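 Briefly, cells in 96-well plates were exposed to five compound concentrations for 48 h, and endpoints were estimated by linear interpolation. TGI: total growth inhibition.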
# Key:
# Test in all cases: growth of human tumour cells (NCI), 48 h
# [1] = system: HS 578T breast
# [2] = system: UACC-62 melanoma
# [3] = system: M14 melanoma
# [4] = system: OVCAR-4 ovarian
# [5] = system: LOX IMVI melanoma
# [6] = system: OVCAR-3 ovarian
# [7] = system: EKVX NSCLC
# [8] = system: MALME-3M melanoma
# [9] = system: A549 NSCLC
# [10] = system: NCI-H522 lung
# [11] = system: HOP-92 NSCLC
# [12] = system: KM12 colon
# [13] = system: SF-539 CNS
# [14] = system: SF-295 CNS
# [15] = system: SR leukemia
# [16] = system: SF-268 CNS
# [17] = system: U251 CNS
# [18] = system: MDA-MB-435
# [19] = system: HL-60(TB) leukemia
# [20] = system: NCI-H226 lung
# [21] = system: SK-MEL-2 melanoma
# [22] = system: HCT-15 colon
# [23] = system: MCF7 breast
# [24] = system: BT-549 breast
# [25] = system: SK-MEL-28 melanoma
# [26] = system: COLO 205 colon
# [27] = system: SNB-19 CNS
# [28] = system: CAKI-1 renal
# [29] = system: SK-MEL-5 melanoma
# [30] = system: MDA-N
# [31] = system: K-562 leukemia
# [32] = system: HT29 colon
# [33] = system: SW-620 colon
# [34] = system: MDA-MB-231 breast
# [35] = system: DU-145 prostate
# [36] = system: HCC-2998 colon
# [37] = system: T-47D breast
# [38] = system: NCI/ADR-RES ovarian
# [39] = system: RPMI-8226 leukemia
# [40] = system: PC-3 prostate
# [41] = system: MOLT-4 leukemia
# [42] = system: OVCAR-5 ovarian
# [43] = system: CCRF-CEM leukemia
# [44] = system: 786-0 renal
# [45] = system: UO-31 renal
# [46] = system: ACHN renal
# [47] = system: IGROV1 ovarian
# [48] = system: SNB-75 CNS
# [49] = system: SN12C renal
# [50] = system: TK-10 renal
# [51] = system: RXF 393 renal
# [52] = system: SK-OV-3 ovarian
# [53] = system: HCT-116 colon
# [54] = system: OVCAR-8 ovarian
# [55] = system: NCI-H460 lung
# [56] = system: HOP-62 NSCLC
# [57] = system: NCI-H23 lung
# [58] = system: UACC-257 melanoma
compound,measurement,setting,value
CCN(CC)C(=S)N/N=C/c1ccccn1,TGI,[1],> 100 µM
same,TGI,[2],0.392 µM
same,TGI,[3],0.349 µM
same,TGI,[4],> 100 µM
same,TGI,[5],0.27 µM
same,TGI,[6],11 µM
same,TGI,[7],> 100 µM
same,TGI,[8],> 100 µM
same,TGI,[9],1.39 µM
same,TGI,[10],1.53 µM
same,TGI,[11],2.44 µM
same,TGI,[12],> 100 µM
same,TGI,[13],0.377 µM
same,TGI,[14],> 77.1 µM
same,TGI,[15],> 54.8 µM
same,TGI,[16],> 66.4 µM
same,TGI,[17],> 100 µM
same,TGI,[18],> 100 µM
same,TGI,[19],4.09 µM
same,TGI,[20],0.989 µM
same,TGI,[21],> 100 µM
same,TGI,[22],> 100 µM
same,TGI,[23],26 µM
same,TGI,[24],> 100 µM
same,TGI,[25],> 100 µM
same,TGI,[26],> 53.9 µM
same,TGI,[27],> 100 µM
same,TGI,[28],> 100 µM
same,TGI,[29],0.542 µM
same,TGI,[30],> 100 µM
same,TGI,[31],> 100 µM
same,TGI,[32],> 100 µM
same,TGI,[33],> 100 µM
same,TGI,[34],> 100 µM
same,TGI,[35],1.27 µM
same,TGI,[36],> 100 µM
same,TGI,[37],> 100 µM
same,TGI,[38],0.692 µM
same,TGI,[39],> 100 µM
same,TGI,[40],> 100 µM
same,TGI,[41],> 100 µM
same,TGI,[42],> 100 µM
same,TGI,[43],> 100 µM
same,TGI,[44],19 µM
same,TGI,[45],2.1 µM
same,TGI,[46],10.1 µM
same,TGI,[47],11.7 µM
same,TGI,[48],44.8 µM
O=C1CSC2=NCC3(NN12)c1ccccc1-c1ccccc13,TGI,[49],> 10 µM
same,TGI,[50],> 10 µM
same,TGI,[1],> 10 µM
same,TGI,[2],> 10 µM
same,TGI,[3],> 10 µM
same,TGI,[4],> 10 µM
same,TGI,[5],> 10 µM
same,TGI,[7],> 10 µM
same,TGI,[51],> 10 µM
same,TGI,[8],> 10 µM
same,TGI,[9],> 10 µM
same,TGI,[10],> 10 µM
same,TGI,[52],> 10 µM
same,TGI,[11],> 10 µM
same,TGI,[12],> 10 µM
same,TGI,[53],> 10 µM
same,TGI,[13],> 10 µM
same,TGI,[14],> 10 µM
same,TGI,[15],> 10 µM
same,TGI,[16],> 10 µM
same,TGI,[54],> 10 µM
same,TGI,[55],> 10 µM
same,TGI,[18],> 10 µM
same,TGI,[56],> 10 µM
same,TGI,[19],> 10 µM
same,TGI,[20],> 10 µM
same,TGI,[22],> 10 µM
same,TGI,[23],> 10 µM
same,TGI,[24],> 10 µM
same,TGI,[25],> 10 µM
same,TGI,[26],> 10 µM
same,TGI,[27],> 10 µM
same,TGI,[28],> 10 µM
same,TGI,[29],> 10 µM
same,TGI,[30],> 10 µM
same,TGI,[31],> 10 µM
same,TGI,[32],> 10 µM
same,TGI,[33],> 10 µM
same,TGI,[34],> 10 µM
same,TGI,[35],> 10 µM
same,TGI,[36],> 10 µM
same,TGI,[37],> 10 µM
same,TGI,[57],> 10 µM
same,TGI,[38],> 10 µM
same,TGI,[39],> 10 µM
same,TGI,[40],> 10 µM
same,TGI,[58],> 10 µM
same,TGI,[41],> 10 µM
same,TGI,[43],> 10 µM
same,TGI,[44],> 10 µM
same,TGI,[45],> 10 µM
same,TGI,[46],> 10 µM
same,TGI,[47],> 10 µM
same,TGI,[48],> 10 µM
